Laboratory results taken from ChEMBL document CHEMBL1201862, “PubChem BioAssay data set” (2004).
Each block holds one molecule with its values, some of them ahead of it. The source made the active and inactive calls.

Assays:
[1] = nonselective inhibitors of cellular cAMP signaling, dose response, counter-screen for MC4R biased antagonist project, cell-based, TR-FRET cAMP detection (AID 602305); format: functional;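 also: U2OS cells stimulated with forskolin near its EC80 as the cAMP inducer; potency is for inhibition of forskolin-stimulated cAMP signaling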
[2] = target: T1, Zinc finger protein mex-5 (Caenorhabditis elegans, UniProt Q9XUB2); assay: MEX-5/TCR-2 RNA interaction inhibitors, dose response, biochemical, C. elegans, fluorescence polarization (AID 1960)
T1 sequence (Q9XUB2 whole entry): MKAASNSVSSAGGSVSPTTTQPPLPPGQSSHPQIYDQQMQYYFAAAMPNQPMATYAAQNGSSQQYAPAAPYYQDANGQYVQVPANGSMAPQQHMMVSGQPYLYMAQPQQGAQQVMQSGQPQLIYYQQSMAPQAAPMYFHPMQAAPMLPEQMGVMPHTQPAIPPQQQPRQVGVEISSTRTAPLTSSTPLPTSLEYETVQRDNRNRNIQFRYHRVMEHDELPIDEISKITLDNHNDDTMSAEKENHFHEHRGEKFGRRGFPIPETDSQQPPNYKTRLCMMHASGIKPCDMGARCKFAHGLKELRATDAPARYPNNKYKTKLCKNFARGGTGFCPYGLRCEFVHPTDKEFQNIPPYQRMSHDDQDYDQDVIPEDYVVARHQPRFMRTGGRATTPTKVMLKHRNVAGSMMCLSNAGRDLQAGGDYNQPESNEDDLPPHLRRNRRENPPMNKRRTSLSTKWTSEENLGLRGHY

Melanocortin receptor 4 = Melanocortin receptor 4 (Homo sapiens, UniProt P32245); assay: MC4R antagonist potency on cAMP, dose response, cell-based, TR-FRET, biased antagonists (AID 602298); format: functional;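 also: antagonist potency against agonist-stimulated cAMP production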
[3] = target: T2, RNA-binding protein pos-1 (Caenorhabditis elegans, UniProt G5EF15); assay: inhibitors of POS-1/mex-3 RNA binding, dose response, biochemical, fluorescence polarization (AID 1964);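 also: purified POS-1 fused to maltose binding protein made in E. coli; potency of compounds blocking POS-1 binding to fluorescent RNA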
T2 sequence (G5EF15 whole entry): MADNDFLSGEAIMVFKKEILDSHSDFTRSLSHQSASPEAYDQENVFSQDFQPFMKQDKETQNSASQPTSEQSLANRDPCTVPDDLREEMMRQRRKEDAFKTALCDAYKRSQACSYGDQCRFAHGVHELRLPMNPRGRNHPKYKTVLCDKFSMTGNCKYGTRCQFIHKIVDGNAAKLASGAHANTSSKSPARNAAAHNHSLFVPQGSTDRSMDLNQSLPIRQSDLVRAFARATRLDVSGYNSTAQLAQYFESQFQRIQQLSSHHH

[4] = target: Peroxisome proliferator-activated receptor gamma/Nuclear receptor coactivator 1 (Homo sapiens, UniProt P37231); format: functional;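 also: agonist potency as compounds enhance coactivator SRC-1 recruitment to PPARgamma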
[5] = target: Peroxisome proliferator-activated receptor gamma/Nuclear receptor coactivator 3 (Homo sapiens, UniProt P37231); format: functional;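 also: agonist potency for raising coactivator recruitment to the receptor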
[6] = target: Peroxisome proliferator-activated receptor gamma/Nuclear receptor coactivator 2 (Homo sapiens, UniProt P37231); format: functional;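 also: agonist potency for raising coactivator recruitment to the receptor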
[7] = target: T3, Corticotropin-releasing factor receptor 2/Corticotropin-releasing factor-binding protein (Homo sapiens, UniProt P24387+Q13324); assay: activators of CRF receptor 2 with binding protein – uHTS hits, confirmation (AID 602473); format: functional; details: read-out: EC50_Mean
T3 sequence (Q13324 whole entry): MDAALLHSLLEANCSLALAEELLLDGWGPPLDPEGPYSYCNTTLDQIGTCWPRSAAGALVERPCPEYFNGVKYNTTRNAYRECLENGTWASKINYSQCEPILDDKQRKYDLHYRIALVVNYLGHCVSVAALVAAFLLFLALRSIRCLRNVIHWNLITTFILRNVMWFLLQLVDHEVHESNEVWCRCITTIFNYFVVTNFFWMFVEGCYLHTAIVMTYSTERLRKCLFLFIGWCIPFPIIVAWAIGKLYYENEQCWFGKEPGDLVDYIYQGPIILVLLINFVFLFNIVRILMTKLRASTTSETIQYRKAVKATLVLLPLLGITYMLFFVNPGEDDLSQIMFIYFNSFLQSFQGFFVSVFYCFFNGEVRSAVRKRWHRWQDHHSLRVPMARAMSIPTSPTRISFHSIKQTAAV
T3 sequence (P24387 whole entry): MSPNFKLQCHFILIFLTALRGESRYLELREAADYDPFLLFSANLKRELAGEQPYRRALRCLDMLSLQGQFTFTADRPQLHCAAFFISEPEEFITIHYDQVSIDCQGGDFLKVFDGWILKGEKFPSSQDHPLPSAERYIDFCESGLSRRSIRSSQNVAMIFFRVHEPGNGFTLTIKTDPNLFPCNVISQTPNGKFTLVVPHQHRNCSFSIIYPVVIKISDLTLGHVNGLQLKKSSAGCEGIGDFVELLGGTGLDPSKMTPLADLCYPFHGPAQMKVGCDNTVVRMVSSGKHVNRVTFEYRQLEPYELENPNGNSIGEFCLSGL

[8] = CRF-BP/CRF-R2 complex antagonists, dose response, cell-based, uHTS hits, 384-well (AID 651639); format: functional, Homo sapiens; details: read-out: IC50_Mean
[9] = target: T3, Corticotropin-releasing factor receptor 2/Corticotropin-releasing factor-binding protein; assay: Dose Response confirmation of uHTS hits for small molecule antagonists of the CRF-binding protein and CRF-R2 receptor complex.; format: functional; details: read-out: IC50_Mean
BJ [10] = assay: cytotoxicity toward BJ-TERT-LT-ST fibroblasts, dose response, cell-based, RAS-independent, luminescence (AID 1935); format: functional; details: Homo sapiens;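 also: BJ fibroblasts immortalized with TERT plus LT and ST oncogenes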
BJ [11] = assay: cells; format: functional, cell-based; details: Homo sapiens
BJ [12] = assay: cytotoxicity toward BJ-TERT fibroblasts, dose response, cell-based, RAS-independent, luminescence (AID 1933); format: functional; details: Homo sapiens
[13] = Shn3 3'UTR reporter inhibitors, dose response, cell-based, Clone20 osteoblasts, firefly luciferase, cherry-picked (AID 624132); format: functional;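 also: firefly luciferase luminescence from reporter carrying the Shn3 3'UTR in osteoblasts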
[14] = control 3'UTR Renilla luciferase suppression, dose response, counter-screen for Shn3 inhibitor project, cell-based, Clone20-Shn3RL, cherry-picked (AID 624133); format: functional
[15] = cytotoxicity toward DRD oncogenic fibroblasts, dose response, cell-based, non-viral oncogenic, luminescence (AID 1934); format: functional; details: Homo sapiens
[16] = HepG2 cell cytotoxicity, dose response, cytotoxicity control for Shn3 inhibitor project, CellTiter-Glo, cherry-picked (AID 624134); format: functional, cell-based
Coagulation factor XII = target: T4, Coagulation factor XII (Homo sapiens, UniProt P00748); format: functional;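 also: activated factor XIIa alpha cleaving a fluorogenic AMC peptide substrate; inhibitor potency from loss of enzyme activity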
T4 sequence (P00748 whole entry): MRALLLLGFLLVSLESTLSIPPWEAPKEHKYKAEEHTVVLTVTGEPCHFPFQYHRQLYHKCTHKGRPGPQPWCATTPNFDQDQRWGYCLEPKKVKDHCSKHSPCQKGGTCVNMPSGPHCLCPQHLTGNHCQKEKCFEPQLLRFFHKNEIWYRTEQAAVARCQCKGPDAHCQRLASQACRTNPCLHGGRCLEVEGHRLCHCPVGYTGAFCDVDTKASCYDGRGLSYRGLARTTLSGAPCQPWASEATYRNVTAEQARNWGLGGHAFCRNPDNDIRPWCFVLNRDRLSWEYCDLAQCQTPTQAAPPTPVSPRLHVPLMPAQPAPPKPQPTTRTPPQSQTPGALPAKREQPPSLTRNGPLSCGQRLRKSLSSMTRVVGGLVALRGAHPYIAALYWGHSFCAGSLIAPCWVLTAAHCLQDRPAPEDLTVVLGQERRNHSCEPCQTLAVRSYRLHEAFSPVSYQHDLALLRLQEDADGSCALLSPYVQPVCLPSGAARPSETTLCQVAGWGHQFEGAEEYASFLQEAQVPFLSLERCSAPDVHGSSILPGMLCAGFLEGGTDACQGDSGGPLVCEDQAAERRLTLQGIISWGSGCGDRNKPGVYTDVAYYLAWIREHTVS

[17] = target: Glyceraldehyde-3-phosphate dehydrogenase (Homo sapiens, UniProt P04406)
[18] = target: T5, Alkaline phosphatase, tissue-nonspecific isozyme (Homo sapiens, UniProt P05186); assay: human TNAP enzyme inhibitors, SAR follow-up, biochemical, luminescent, dose response (AID 1056)
T5 sequence (P05186 whole entry): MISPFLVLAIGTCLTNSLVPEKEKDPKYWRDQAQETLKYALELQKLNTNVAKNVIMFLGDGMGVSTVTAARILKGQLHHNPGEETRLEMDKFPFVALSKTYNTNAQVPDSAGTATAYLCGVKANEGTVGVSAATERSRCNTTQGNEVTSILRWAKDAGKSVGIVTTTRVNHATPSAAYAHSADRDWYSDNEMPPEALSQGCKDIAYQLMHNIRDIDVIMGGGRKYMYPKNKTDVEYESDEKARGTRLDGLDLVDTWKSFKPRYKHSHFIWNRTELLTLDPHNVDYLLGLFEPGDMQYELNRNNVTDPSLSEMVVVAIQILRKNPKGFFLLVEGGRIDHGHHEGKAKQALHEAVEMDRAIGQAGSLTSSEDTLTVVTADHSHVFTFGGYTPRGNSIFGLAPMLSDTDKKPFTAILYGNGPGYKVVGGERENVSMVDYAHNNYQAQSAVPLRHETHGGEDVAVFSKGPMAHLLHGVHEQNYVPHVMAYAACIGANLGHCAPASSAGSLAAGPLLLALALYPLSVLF

[19] = target: Eukaryotic translation initiation factor 4E (Mus musculus, UniProt P63073); assay: eIF4E–eIF4G protein interaction inhibitors, dose response, biochemical, TR-FRET (AID 855); format: functional;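 also: potency for disrupting eIF4E binding to eIF4GI seen as loss of FRET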
[20] = target: Neurotensin receptor type 1 (Homo sapiens, UniProt P30989); format: functional;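 also: Image-based confirmatory dose-response assay measuring agonist activity at NTR1; NTR1-expressing U2OS osteosarcoma cells imaged for beta-arrestin GFP spot formation; agonist potency where compounds increase beta-arrestin recruitment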
Chain of Neurotensin receptor type 1 (P30989 whole entry): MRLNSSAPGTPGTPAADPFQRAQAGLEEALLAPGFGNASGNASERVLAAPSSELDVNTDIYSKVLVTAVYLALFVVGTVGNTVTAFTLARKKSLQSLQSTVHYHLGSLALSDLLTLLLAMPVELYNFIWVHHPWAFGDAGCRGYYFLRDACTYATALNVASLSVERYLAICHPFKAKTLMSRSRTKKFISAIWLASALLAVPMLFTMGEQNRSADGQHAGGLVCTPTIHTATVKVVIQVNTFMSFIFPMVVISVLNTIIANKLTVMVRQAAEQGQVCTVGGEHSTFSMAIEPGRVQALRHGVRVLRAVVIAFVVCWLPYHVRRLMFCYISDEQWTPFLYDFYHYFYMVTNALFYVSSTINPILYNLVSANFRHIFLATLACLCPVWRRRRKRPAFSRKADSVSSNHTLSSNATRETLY

Chain of Peroxisome proliferator-activated receptor gamma/Nuclear receptor coactivator 1 (P37231 whole entry): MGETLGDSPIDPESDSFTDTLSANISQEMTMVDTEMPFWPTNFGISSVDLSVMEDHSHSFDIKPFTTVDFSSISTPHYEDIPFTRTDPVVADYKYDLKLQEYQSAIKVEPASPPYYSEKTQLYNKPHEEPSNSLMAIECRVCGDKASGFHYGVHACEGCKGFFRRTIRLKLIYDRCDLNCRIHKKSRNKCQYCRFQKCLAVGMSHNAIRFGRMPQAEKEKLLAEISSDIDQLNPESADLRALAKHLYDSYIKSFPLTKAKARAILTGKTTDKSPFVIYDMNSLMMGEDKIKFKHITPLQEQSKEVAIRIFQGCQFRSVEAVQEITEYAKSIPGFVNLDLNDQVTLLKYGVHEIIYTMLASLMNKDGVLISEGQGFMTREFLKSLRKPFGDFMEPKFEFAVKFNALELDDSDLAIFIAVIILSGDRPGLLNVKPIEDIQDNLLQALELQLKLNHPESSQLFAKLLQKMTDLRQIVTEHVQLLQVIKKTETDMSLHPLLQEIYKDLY
Chain of Peroxisome proliferator-activated receptor gamma/Nuclear receptor coactivator 1 (Q15788 whole entry, further chain): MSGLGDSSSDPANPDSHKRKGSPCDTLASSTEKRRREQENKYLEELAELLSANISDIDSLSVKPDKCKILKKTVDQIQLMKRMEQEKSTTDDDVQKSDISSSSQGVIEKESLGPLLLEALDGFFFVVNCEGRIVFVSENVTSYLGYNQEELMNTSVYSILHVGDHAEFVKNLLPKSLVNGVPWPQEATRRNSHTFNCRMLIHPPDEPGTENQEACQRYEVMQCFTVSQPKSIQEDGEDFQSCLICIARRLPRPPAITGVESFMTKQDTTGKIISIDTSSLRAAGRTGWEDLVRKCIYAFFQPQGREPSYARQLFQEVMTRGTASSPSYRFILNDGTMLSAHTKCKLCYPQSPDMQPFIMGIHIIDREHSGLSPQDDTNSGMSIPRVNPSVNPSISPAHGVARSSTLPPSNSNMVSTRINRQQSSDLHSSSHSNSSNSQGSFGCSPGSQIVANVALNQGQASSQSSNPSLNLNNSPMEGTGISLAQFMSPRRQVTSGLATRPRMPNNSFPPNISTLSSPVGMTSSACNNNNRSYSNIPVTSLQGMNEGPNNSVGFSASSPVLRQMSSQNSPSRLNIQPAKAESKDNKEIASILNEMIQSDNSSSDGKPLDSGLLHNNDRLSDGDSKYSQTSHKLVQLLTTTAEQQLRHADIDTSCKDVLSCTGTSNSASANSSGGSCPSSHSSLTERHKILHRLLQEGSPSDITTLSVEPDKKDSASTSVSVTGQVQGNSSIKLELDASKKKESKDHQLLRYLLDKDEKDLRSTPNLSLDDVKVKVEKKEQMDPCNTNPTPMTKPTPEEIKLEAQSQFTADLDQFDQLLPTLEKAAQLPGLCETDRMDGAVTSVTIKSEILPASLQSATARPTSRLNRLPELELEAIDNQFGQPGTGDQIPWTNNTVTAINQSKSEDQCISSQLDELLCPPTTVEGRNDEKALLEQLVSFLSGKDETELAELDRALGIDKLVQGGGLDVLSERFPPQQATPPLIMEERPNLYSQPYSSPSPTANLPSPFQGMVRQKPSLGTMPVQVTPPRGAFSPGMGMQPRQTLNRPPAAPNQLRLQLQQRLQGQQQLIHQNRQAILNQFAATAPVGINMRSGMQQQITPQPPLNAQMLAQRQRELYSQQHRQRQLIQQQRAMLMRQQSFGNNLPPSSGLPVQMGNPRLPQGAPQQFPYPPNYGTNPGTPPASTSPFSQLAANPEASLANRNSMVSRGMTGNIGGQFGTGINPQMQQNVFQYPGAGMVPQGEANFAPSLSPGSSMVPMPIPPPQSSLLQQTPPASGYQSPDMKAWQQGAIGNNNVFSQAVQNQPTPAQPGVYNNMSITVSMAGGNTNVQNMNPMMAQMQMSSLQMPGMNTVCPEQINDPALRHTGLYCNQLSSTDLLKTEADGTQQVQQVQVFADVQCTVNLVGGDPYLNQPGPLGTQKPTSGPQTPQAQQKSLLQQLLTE
Chain of Peroxisome proliferator-activated receptor gamma/Nuclear receptor coactivator 2 (P37231 whole entry): as the sequence (P37231 whole entry) above
Chain of Peroxisome proliferator-activated receptor gamma/Nuclear receptor coactivator 2 (Q15596 whole entry, further chain): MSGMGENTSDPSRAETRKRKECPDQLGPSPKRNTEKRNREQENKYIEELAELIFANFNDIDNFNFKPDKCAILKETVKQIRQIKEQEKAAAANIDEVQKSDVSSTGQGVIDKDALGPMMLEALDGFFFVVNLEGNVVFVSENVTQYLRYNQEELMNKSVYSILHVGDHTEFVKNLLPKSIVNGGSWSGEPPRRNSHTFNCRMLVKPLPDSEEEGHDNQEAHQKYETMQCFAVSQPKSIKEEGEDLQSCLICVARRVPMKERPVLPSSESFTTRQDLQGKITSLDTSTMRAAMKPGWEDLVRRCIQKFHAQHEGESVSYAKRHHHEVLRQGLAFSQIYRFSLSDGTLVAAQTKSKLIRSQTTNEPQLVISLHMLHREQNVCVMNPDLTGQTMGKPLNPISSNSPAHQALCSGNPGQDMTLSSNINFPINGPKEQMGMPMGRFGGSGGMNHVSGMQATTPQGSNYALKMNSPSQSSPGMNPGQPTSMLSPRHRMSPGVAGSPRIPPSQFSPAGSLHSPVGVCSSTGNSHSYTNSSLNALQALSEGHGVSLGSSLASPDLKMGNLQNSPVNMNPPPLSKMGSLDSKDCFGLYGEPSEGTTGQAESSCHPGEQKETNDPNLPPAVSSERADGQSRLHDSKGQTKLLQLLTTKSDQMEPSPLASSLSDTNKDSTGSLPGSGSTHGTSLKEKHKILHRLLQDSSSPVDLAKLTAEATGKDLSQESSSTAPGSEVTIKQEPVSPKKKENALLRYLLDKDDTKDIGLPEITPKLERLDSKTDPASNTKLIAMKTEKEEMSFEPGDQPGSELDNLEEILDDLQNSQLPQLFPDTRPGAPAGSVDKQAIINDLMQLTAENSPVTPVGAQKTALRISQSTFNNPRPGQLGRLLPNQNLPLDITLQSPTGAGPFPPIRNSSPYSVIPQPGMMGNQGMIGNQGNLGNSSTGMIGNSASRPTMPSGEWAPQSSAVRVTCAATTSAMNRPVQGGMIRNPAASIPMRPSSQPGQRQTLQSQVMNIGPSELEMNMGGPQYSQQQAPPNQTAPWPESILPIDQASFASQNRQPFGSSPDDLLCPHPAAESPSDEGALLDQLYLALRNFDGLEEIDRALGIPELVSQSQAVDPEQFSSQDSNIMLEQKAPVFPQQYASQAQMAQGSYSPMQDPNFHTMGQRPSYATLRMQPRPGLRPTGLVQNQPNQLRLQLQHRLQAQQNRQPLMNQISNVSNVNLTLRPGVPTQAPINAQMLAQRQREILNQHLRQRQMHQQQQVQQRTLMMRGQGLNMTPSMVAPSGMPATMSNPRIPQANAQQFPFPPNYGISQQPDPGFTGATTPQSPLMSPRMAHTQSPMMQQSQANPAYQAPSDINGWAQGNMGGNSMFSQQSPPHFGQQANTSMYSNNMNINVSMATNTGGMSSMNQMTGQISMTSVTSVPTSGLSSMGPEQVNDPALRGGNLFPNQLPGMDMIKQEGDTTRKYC
Chain of Glyceraldehyde-3-phosphate dehydrogenase (P04406 whole entry): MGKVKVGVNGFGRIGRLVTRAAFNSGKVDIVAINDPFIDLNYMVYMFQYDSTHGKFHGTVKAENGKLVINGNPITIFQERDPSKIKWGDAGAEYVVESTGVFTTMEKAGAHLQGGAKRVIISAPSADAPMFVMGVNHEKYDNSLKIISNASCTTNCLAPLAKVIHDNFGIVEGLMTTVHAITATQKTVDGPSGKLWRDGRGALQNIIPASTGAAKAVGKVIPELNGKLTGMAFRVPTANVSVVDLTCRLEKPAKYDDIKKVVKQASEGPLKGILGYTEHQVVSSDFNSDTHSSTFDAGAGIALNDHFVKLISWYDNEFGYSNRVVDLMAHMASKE
Chain of Melanocortin receptor 4 (P32245 whole entry, the tested form may be a part): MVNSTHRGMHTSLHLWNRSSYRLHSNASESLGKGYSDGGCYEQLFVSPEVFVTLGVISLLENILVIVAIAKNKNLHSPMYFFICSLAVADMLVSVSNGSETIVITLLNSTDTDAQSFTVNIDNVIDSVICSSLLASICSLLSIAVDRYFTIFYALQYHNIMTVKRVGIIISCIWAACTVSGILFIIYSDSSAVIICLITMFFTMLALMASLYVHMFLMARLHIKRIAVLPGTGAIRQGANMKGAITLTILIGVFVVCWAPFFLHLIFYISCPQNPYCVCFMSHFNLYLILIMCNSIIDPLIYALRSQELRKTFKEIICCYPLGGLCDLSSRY

SMILES: CCOC(=O)CSc1nc2ccc(Nc3nc(N4CCOCC4)nc(N4CCOCC4)n3)cc2s1
IC50 [1]: > 64.6 µM (inactive)
EC50 [2]: > 300 µM (not active)
IC50 (Melanocortin receptor 4): > 64.6 µM (inactive)
EC50 [3]: > 300 µM (not active)

SMILES: COc1ccccc1Nc1nc(N)nc(CSC(=S)N2CC(C)CC(C)C2)n1 (configuration not stated)
EC50 [7]: > 53 µM (inactive)
IC50 [8]: > 20 µM (inactive)
IC50 [9]: 32 µM (active)

SMILES: O=c1oc2ccccc2cc1-c1cn2ccccc2n1
EC50 (BJ [10]): 17.1 µM (active)
EC50 (BJ [11]): 2.92 µM (active)
EC50 [4]: > 79.4 µM (not active)
EC50 (BJ [12]): 11 µM (active)
EC50 [5]: > 79.4 µM (not active)
AC50 [13]: 3.64 µM (active)
AC50 [14]: 20.3 µM (active)
EC50 [6]: > 79.4 µM (not active)
EC50 [15]: 3.59 µM (active)
AC50 [16]: > 70 µM (inactive)

SMILES: O=C1c2c(Cl)c(Cl)c(Cl)c(Cl)c2C(=O)N1c1nnc(CCc2ccccc2)[nH]1
IC50 [17]: > 100 µM (not active)
IC50 [18]: > 100 µM (inactive)

SMILES: NS(=O)(=O)c1ccc(NC(=O)COC(=O)c2ncc(Cl)c(Cl)c2Cl)cc1
IC50 [1]: > 64.6 µM (inactive)
IC50 (Melanocortin receptor 4): > 64.6 µM (inactive)

Second part, the molecule after the results:

EC50 [4]: 81.2 µM (not active)
EC50 [5]: > 79.4 µM (not active)
EC50 [6]: 39.8 µM (not active)
SMILES: Cc1ccc(NC(=O)CSc2nnc(-c3ccc(S(=O)(=O)N4CCCC4)cc3)o2)cc1C

IC50 (Coagulation factor XII): > 50 µM (inactive)
SMILES: CCCOc1ccc(C(=O)NC(C)C(=O)O)cc1 (configuration not stated)

IC50 [19]: > 64 µM (inactive)
SMILES: O=C(NCCc1ccncc1)c1ccccc1F

IC50 [17]: > 100 µM (not active)
IC50 [18]: > 100 µM (inactive)
SMILES: Cc1ccc(S(=O)(=O)Nc2nc3ccccc3nc2Cl)cc1

EC50 [4]: > 79.4 µM (not active)
EC50 [5]: > 79.4 µM (not active)
EC50 [6]: > 79.4 µM (not active)
SMILES: CC(C)N1CCN(Cc2ccc(Oc3ncccn3)cc2)CC1CCO (configuration not stated)

EC50 [20]: 17.1 µM (active)
SMILES: O=C(N/N=C/c1ccc(OC(=O)c2ccccc2Cl)cc1)c1ccc(O)cc1
